How the values were obtained:
rats [1] = assay: Open-field locomotion in MK-801 animal model of schizophrenia; assay type: in vivo, rat
Procedure: The effect of the compound from example 9 in doses of 0.1 mg/kg and 1 mg/kg on locomotor activity in open field test was evaluated. Locomotor activity expressed as a total distance travelled during 30 min exploration of a box (68×68×30 cm) located in a sound proof room was measured using a video tracking system for automation of the behavioural experiments (Noldus, EthoVision, Version 2.1.).

C6 glioma cell line = assay: Growth of glioma cells in culture; assay type: cell-based; details: 0.1 and 1 μg in 50 ml β-cyclodextrine solution, 3 div + 6 days
Procedure: The effect of compound from the example 9 (the model molecule) on growth of glioma cells was studied on C6 glioma cell line (ATTC, Rockville). The model molecule was tested at doses of 0.1 and 1 μg dissolved in 50 ml of β-cyclodextrine solution. Parallel control groups were administered by cholesterol at doses of 0.1 and 1 μg dissolved in 50 ml of β-cyclodextrine solution. The last group included in the experiment was left intact without any application.
The cells were cultivated in vitro for 3 days (div). Afterwards tested molecule was applied and the cell culture was studied for additional 6 days. Olympus microscope with phase contrast and 200× magnification was used for the cell monitoring.

rats [2] = assay: AAPA task after MK-801 (animal model of schizophrenia); assay type: in vivo, rat; details: for locomotion activity in AAPA (total distance): vs control
Procedure: The effect of compound from example 9 application on changes in behavior and locomotor activity in animal model of schizophrenia was monitored. Schizophrenia-like behavior in rats was induced by dizocilpine (MK-801) administration. […] was administered in doses of 0.001 mg/kg, 0.01 mg/kg, 0.1 mg/kg and 10 mg/kg. Spatial orientation and cognitive function of rats were assessed in active allothetic place avoidance task (AAPA).
Schizophrenia-like behaviour in rats was induced by administration of dizocilpine (MK-801). Spatial navigation and cognitive functions of rats were assessed in active alothetic place avoidance task (AAPA). In addition, this task allows simultaneous assessment of potential differences in locomotory activity. The AAPA task requires rats moving on a continuously rotating (1 rpm) smooth metallic circular arena to avoid an unmarked place defined in the coordinates of the experimental room. The avoidance is reinforced by a mild electric foot-shock administered automatically upon entering the to-be avoided place.
The AAPA task is highly dependent on hippocampal function, since even a unilateral inactivation of thstructure hippocampus impairs this behaviour. Animals have to actively and repeatedly move away from the to-be-avoided place otherwise they are brought there by the arena rotation. Each AAPA session lasts 20 min and 4 sessions were conducted over 4 consecutive days.
Rats received 0.1 mg/kg MK-801 alone or co-administered with the compound from example 9 (dissolved in β-cyclodextrine) in doses of 0.001 mg/kg, 0.01 mg/kg, 0.1 mg/kg, and 10 mg/kg. Control animals received saline. […] It is for a common animal model of schizophrenia-like behaviour.
The results are shown in FIGS. 21-23, where means and standard errors of the mean (S.E.M.) are represented for individual sessions. Statistic analysis was for better clarity stated always for the last session, when an asymptotic level of performance in control animals was reached.

Long-Evans rats = assay: AAPA task after bilateral NMDA excitotoxic lesion of the hippocampus; assay type: in vivo, rat
Procedure: Neuroprotective action of 3α-substituted derivatives of pregnanolone was tested in the well-established model represented by excitotoxic bilateral lesion of the hippocampus with NMDA, an agonist of NMDA receptors. This model represents a widely-accepted paradigm of excitotoxicity induced experimental disruption of memory functions in laboratory rodents. The model also mimics into some extent the excessive action of glutamate on cells in the hippocampus, which contains abundance of NMDA receptors. The effect of lesions and possible neuroprotective action can be observed at various intervals after treatment both on the histological and behavioral level, provided that a suitable hippocampus-dependent memory task is available. In our studies, we have used a hippocampus-dependent spatial task AAPA (see above), which requires spatial and executive abilities and involves so-called “cognitive coordination” (Wesierska et al., 2005). Again, all manipulations with animals conformed to current legislation and Institutional recommendations on animal care and were approved by ethical-care committee.
In this phase of experiment, we have studied the effect of compound from Example 9 (and relation of this effect to dose) on NMDA excitotoxic hippocampal lesion after various intervals from lesioning. 150 adult male Long-Evans rats (250-350 g) were used in the study. Rats were housed in transparent plastic cages (25×25×40 cm) in air-conditioned animal room with 12/12 h dark/light rhythmicity. All rats had free access to food and water throughout the study.
During surgery, animals were deeply anesthetized by isoflurane inhalation anesthesia (3.5%, driven by air). Initial sedation was pursued in initiation chamber filled with diethyl ether vapor. During whole anesthesia, vital functions of animals were precisely monitored by the person pursuing surgery. After fixation in the stereotaxic apparatus (Kopf Instruments) the skull was exposed and small trephine openings were drilled with micro driller and subsequently, 1 ul of NMDA solution ([…] NMDA in saline buffered with calcium dihydrogenphosphate to pH=7.2) was microinjected into both dorsal hippocampi. The stereotaxic coordinates (AP=4; L=±2.5; DV=4) were measured from a rigorous atlas (Paxinos and Watson, 2005) and later verified from histological examination. Rats were then placed into soft post-surgery boxes. […] Doses of compound from Example 9 were: 0.01 mg/kg, 0.1 mg/kg and 10 mg/kg of b.w. In control groups and lesion-only groups, we applied only saline and NMDA, respectively. Solution of compound from Example 9 (0.01 mg/2 ml, 0.1 mg/2 ml or 10 mg/2 ml dissolved in cyclodextrin) was applied s.c. at a volume of 2 ml/kg.
Prior to behavioral observations, animals were left for 7 days to recover after surgery. After this recovery period, two days (each consisting of two sessions) of AAPA training were conducted. Each rat was initially placed onto rotating (1 rpm) circular arena containing a to-be-avoided sector (60°), fixed in the coordinate frame of the room (Stuchlik et al., 2008). Upon entrance into the prohibited sector, rat was punished by a mild electric footshock (˜0.3 mA] delivered from low-impedance subcutaneous wire to contact between rats paws and grounded floor (with highest voltage drop in rats feet). Rats wore a latex harness on their backs, holding an infrared light-emitting diode (LED), which was sampled by TV camera mounted above the arena and connected to a computer digitizing system (iTrack, Biosignal Group, USA). The shock sector is not directly perceptible for animals and its location can be determined solely by its relationships with distal room landmarks. […] The task is highly dependent upon hippocampus, with unilateral inactivation of this structure leading to avoidance deficit (Cimadevilla et al., 2001). This was the reason why we have selected this task for NMDA-induced impairment and detection of putative neuroprotective action of our compound (Example 9). […]

[3] = 10 mg/kg s.c., 30 min prior to and after lesion, or 120 min after lesion

SMILES: CC(=O)[C@H]1CC[C@H]2[C@@H]3CC[C@@H]4C[C@H](OC(=O)[C@@H](N)CCC(=O)O)CC[C@]4(C)[C@H]3CC[C@]12C [Example 9, 20-Oxo-5β-pregnan-3α-yl L-glutamyl 1-ester]
- hyperlocomotion induced by MK-801 in open field (rats [1]; Example 9 0.1 or 1 mg/kg + MK-801 0.1 mg/kg): has not effect on hyperlocomotion state induced by MK-801
- locomotion in open field (total distance, 30 min) (rats [1]; substance alone, Example 9 0.1 and 1 mg/kg, MK-801 0.1 mg/kg): did not produce locomotor alterations in the open-field test
- effect on growth of glioma cells (C6 glioma cell line): overall slight cytostatic and pro-differentiation effect on glioma cells
- MK-801-induced deficit in number of errors in AAPA (rats [2]; Example 9 0.001, 0.01, 0.1 and 10 mg/kg + MK-801 0.1 mg/kg): reversed this deficits at all doses
- locomotion activity in AAPA (total distance) (rats [2]; Example 9 0.001, 0.01 and 0.1 mg/kg + MK-801 0.1 mg/kg): showed neither increase nor decrease of locomotion activity
- MK-801-induced deficit in maximum time of avoidance in AAPA (rats [2]; Example 9 0.001, 0.01 and 10 mg/kg + MK-801 0.1 mg/kg): reversed this deficit
- locomotion activity in AAPA (total distance) (rats [2]; Example 9 10 mg/kg + MK-801 0.1 mg/kg): increased locomotor activity compared to controls
- number of entrances in AAPA after NMDA lesion (Long-Evans rats; 0.01 mg/kg s.c., 30 min after lesion): improved the subsequent performance in the AAPA task
- maximum time avoided in AAPA after NMDA lesion (Long-Evans rats; 0.01 mg/kg s.c., 30 min after lesion, or 30 min prior to and after lesion): had beneficial effect in lesioned animals
- number of entrances in AAPA after NMDA lesion (Long-Evans rats; 0.01 mg/kg s.c., 30 min prior to and after lesion): the alleviation was not significant
- number of entrances in AAPA after NMDA lesion (Long-Evans rats; 0.01 mg/kg s.c., longer intervals from the lesion): exerted no effect after longer intervals from the lesion
- maximum time avoided in AAPA after NMDA lesion (Long-Evans rats; 0.1 mg/kg s.c.): tended to alleviate the performance of rats compared to lesioned animals without treatment
- number of entrances in AAPA after NMDA lesion (Long-Evans rats; 0.1 mg/kg s.c., 30 min after lesion): non-significantly improved the behavioral performance
- maximum time avoided in AAPA after NMDA lesion (Long-Evans rats; [3]): caused a significant improvement of rat performance
- number of entrances in AAPA after NMDA lesion (Long-Evans rats; [3]): significant protective effect against hippocampal lesion
- number of entrances in AAPA after NMDA lesion (Long-Evans rats; 10 mg/kg s.c., other delays): No improvement was seen at other delays
